ChEMBL document CHEMBL4390668, “Discovery and Structural Optimization of Acridones as Broad-Spectrum Antimalarials” (J Med Chem, 2019)
Active and inactive are the calls of the source. The rule behind the calls is not given here.

Key:
[1] = system: HepG2; assay: Cytotoxicity against human HepG2 cells measured after 24 to 36 hrs by resazurin dye based fluorescence assay; format: cell-based
[2] = system: Plasmodium falciparum; assay: Antimalarial activity against atovaquone-resistant Plasmodium falciparum Tm90-C2B infected in human erythrocytes by SYBR green 1-based fluorescence assay; format: functional, organism-based
[3] = system: Plasmodium falciparum; assay: Antimalarial activity against multidrug-resistant Plasmodium falciparum 7G8 infected in human erythrocytes by SYBR green 1-based fluorescence assay; format: functional, organism-based
[4] = system: Plasmodium falciparum; assay: Antimalarial activity against drug-resistant Plasmodium falciparum Dd2 harboring V259L mutant infected in human erythrocytes after 72 hrs by SYBR green 1-based fluorescence assay; format: functional, organism-based; settings: Dd2, 72 h
[5] = system: Plasmodium falciparum; assay: Inhibition of Plasmodium falciparum cytochrome b-c1
[6] = Selectivity index, ratio of IC50 for human HepG2 cells to IC50 for chloroquine-sensitive Plasmodium falciparum D6 infected in human erythrocytes; format: toxicity, cell-based; settings: read-out: Ratio IC50
[7] = system: Plasmodium falciparum; assay: Antimalarial activity against chloroquine-sensitive Plasmodium falciparum D6 infected in human erythrocytes by SYBR green 1-based fluorescence assay; format: functional, organism-based
[8] = system: Plasmodium falciparum; assay: Antimalarial activity against multidrug-resistant Plasmodium falciparum Dd2 infected in human erythrocytes by SYBR green 1-based fluorescence assay; format: functional, organism-based
[9] = system: Plasmodium berghei; assay: Antimalarial activity against luciferase-expressing Plasmodium berghei ANKA 676m1cl1 sporozoites infected in human HepG2A16 cells measured after 45 hrs by luciferase-luciferin based reporter assay; format: functional, organism-based; settings: ANKA 676m1cl1, HepG2A16, 45 h
[10] = system: Plasmodium falciparum; assay: Antimalarial activity against drug-resistant Plasmodium falciparum Dd2 harboring M133I mutant infected in human erythrocytes after 72 hrs by SYBR green 1-based fluorescence assay; format: functional, organism-based; settings: Dd2, 72 h
[11] = system: Plasmodium falciparum; assay: Antimalarial activity against drug-resistant Plasmodium falciparum Dd2 harboring M133I/A138T double mutant infected in human erythrocytes after 72 hrs by SYBR green 1-based fluorescence assay; format: functional, organism-based; settings: Dd2, 72 h
[12] = system: Plasmodium yoelii; assay: Antimalarial activity against blood stage Plasmodium yoelii MR4 MRA-428 infected in CF1 mouse assessed as suppression of parasitemia administered once daily via oral gavage for 4 days starting from 24 hrs post-infection and measured post-last dose by Giemsa-staining based microscopic analysis; format: functional
[13] = system: Plasmodium falciparum; assay: Antimalarial activity against Plasmodium falciparum 3D7 infected in human erythrocytes after 72 hrs by SYBR green 1-based fluorescence assay; format: functional, organism-based; settings: 3D7, 72 h
[14] = system: Plasmodium falciparum; assay: Antimalarial activity against drug-resistant Plasmodium falciparum 3D7 harboring A82T/V259L double mutant infected in human erythrocytes after 72 hrs by SYBR green 1-based fluorescence assay; format: functional, organism-based; settings: 3D7, 72 h
[15] = Mutagenicity in Salmonella typhimurium TA98 assessed as increase in revertant colonies up to 10 uM in absence of S9 fraction by Ames test; format: toxicity; settings: salmonella enterica subsp. enterica serovar typhimurium
[16] = biological target: hERG (KCNH2) (Homo sapiens, UniProt Q12809); assay: Inhibition of human ERG expressed in CHOK1 cells at 10 uM by automated patch clamp method relative to control; format: cell-based; settings: CHO-K1 cells that express hERG
[17] = Half life in mouse liver microsomes at 1 uM by LC-MS analysis; format: ADME, Microsome
[18] = Mutagenicity in Salmonella typhimurium TA98 assessed as increase in revertant colonies up to 10 uM in presence of S9 fraction by Ames test; format: toxicity, subcellular; settings: salmonella enterica subsp. enterica serovar typhimurium
[19] = Mutagenicity in Salmonella typhimurium TA100 assessed as increase in revertant colonies up to 10 uM in absence of S9 fraction by Ames test; format: toxicity; settings: salmonella enterica subsp. enterica serovar typhimurium
[20] = Half life in human liver microsomes at 1 uM by LC-MS analysis; format: ADME, Microsome
[21] = Mutagenicity in Salmonella typhimurium TA100 assessed as increase in revertant colonies up to 10 uM in presence of S9 fraction by Ames test; format: toxicity, subcellular; settings: salmonella enterica subsp. enterica serovar typhimurium

hERG (KCNH2), sequence (Q12809 whole entry): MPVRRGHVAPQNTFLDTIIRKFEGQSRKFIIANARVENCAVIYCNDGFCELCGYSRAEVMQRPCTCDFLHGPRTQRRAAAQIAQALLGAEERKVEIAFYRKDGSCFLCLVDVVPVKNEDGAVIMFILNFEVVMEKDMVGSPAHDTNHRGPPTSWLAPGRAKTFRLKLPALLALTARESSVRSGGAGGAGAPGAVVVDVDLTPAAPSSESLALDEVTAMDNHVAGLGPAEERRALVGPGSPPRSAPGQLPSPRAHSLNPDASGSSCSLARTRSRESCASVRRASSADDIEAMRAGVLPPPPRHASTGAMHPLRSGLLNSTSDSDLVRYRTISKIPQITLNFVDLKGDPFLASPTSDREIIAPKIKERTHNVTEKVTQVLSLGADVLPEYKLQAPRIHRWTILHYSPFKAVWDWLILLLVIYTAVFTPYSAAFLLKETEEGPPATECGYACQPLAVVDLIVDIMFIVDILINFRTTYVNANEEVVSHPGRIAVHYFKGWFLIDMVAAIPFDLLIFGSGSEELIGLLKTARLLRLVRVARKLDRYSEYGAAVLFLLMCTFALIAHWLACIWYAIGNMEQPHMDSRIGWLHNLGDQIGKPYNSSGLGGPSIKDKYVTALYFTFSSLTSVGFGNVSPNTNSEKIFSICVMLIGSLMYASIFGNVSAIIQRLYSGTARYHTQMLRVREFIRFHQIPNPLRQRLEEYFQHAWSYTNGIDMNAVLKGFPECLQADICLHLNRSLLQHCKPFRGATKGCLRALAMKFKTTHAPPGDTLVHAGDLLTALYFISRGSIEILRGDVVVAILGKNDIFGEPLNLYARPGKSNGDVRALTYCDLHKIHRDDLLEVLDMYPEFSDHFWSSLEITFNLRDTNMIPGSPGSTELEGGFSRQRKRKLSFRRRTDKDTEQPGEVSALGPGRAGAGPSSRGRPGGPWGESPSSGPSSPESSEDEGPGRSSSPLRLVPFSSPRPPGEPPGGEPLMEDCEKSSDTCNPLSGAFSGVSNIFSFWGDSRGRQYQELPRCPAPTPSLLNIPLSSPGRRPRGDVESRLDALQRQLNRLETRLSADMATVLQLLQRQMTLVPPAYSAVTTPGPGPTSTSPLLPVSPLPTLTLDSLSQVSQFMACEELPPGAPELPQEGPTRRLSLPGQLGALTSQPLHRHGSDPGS

Row | SMILES | IC50 [1] [nM] | IC50 [2] [nM] | IC50 [3] [nM] | IC50 [4] [nM] | inhibition [5] | selectivity ratio [6] | IC50 [7] [nM] | IC50 [8] [nM] | IC50 [9] [nM] | half-life at 1 µM [17] [min] | half-life at 1 µM [20] [min] | also measured
1 | CN1CCCC1CCOc1ccc2c(=O)c3c(Cl)c(Cl)ccc3[nH]c2c1 (stereo not drawn) | 47600 | 368 | 440 | 3110 | inactive | 992 | 48 | 172 to 616 | – | – | – | –
2 | O=c1c2ccc(OCCNC34CC5CC(CC(C5)C3)C4)cc2[nH]c2ccc(Cl)c(Cl)c12 | 10000 | 163 | 176 | 1100 | inactive | 333 | 30 | 77 to 390 | 86 | – | – | –
3 | CCN(CC)CCCC(C)Nc1c2ccc(Cl)cc2nc2ccc(OC)cc12 (stereo not drawn) [QUINACRINE] | – | – | – | 18 | inactive | – | – | 29 | – | – | – | IC50 [10]: 23 nM; IC50 [11]: 29 nM
4 | CCN(CC)CCOc1ccc2c(=O)c3c(F)cc(F)cc3[nH]c2c1 | 77600 | 1980 | 12 | 525 | inactive | 9950 | 7.8 | 16 to 20 | – | – | – | ED50 [12]: 1.62 mg/kg.day; ED90 [12]: 9.91 mg/kg.day; IC50 [11]: 60 nM; IC50 [13]: 15 nM; IC50 [14]: 1150 nM
5 | O[C@@H](c1cc(C(F)(F)F)nc2c(C(F)(F)F)cccc12)[C@H]1CCCCN1 [(S,R)-MEFLOQUINE] | – | – | – | 23 | inactive | – | – | 18 | – | – | – | IC50 [10]: 14 nM; IC50 [11]: 13 nM
6 | O=c1c2ccc(OCCN(CCC(F)(F)F)CCC(F)(F)F)cc2[nH]c2cc(F)cc(F)c12 | > 100000 | 2 | 0.016 | – | – | > 100000 | 0.002 | 0.015 | 0.09 | 33 | 20 | Activity [15]: Non-Toxic; inhibition at 10 µM [16]: 17%; ED50 [12]: 0.66 mg/kg.day; ED90 [12]: 2.53 mg/kg.day; Activity [18]: Non-Toxic; Activity [19]: Non-Toxic; Activity [21]: Non-Toxic
7 | CCN(CC)CCOc1ccc2[nH]c3cc(Cl)ccc3c(=O)c2c1 | 30000 | 97 | 81 | 355 | inactive | 272 | 110 | 132 to 366 | 793 | 34 | > 60 | IC50 [11]: 340 nM; IC50 [13]: 262 nM; IC50 [14]: 284 nM
8 | CCN(CC)CCOc1ccc2c(=O)c3c(Cl)cc(Cl)cc3[nH]c2c1 | 13400 | 465 | 21 | 668 | inactive | 1630 | 8.2 | 22 to 31 | – | – | – | ED50 [12]: 3.09 mg/kg.day; ED90 [12]: 50.2 mg/kg.day; IC50 [11]: 1080 nM; IC50 [13]: 16 nM; IC50 [14]: 612 nM
9 | O=c1c2ccc(OCCCCCl)cc2[nH]c2cc(F)cc(F)c12 | > 100000 | 40 | 0.5 | – | – | > 100000 | 0.12 | 0.16 | 17 | 6 | 14 | –
10 | CCN(CC)CCCOc1ccc2c(=O)c3c(Cl)cc(Cl)cc3[nH]c2c1 | 130000 | 228 | 114 | – | – | 6840 | 19 | 45 | 138 | 16 | 9 | Activity [15]: Non-Toxic; inhibition at 10 µM [16]: 59%; ED50 [12]: 0.43 mg/kg.day; ED90 [12]: 24.1 mg/kg.day; Activity [18]: Non-Toxic; Activity [19]: Non-Toxic; Activity [21]: Non-Toxic
11 | CCN(CC)CCCC(C)Nc1ccnc2cc(Cl)ccc12 (stereo not drawn) [CHLOROQUINE] | – | – | – | 260 | inactive | – | – | – | – | – | – | –
12 | CCCN(CCC)CCOc1ccc2c(=O)c3c(Cl)cc(Cl)cc3[nH]c2c1 | – | 153 | 0.006 | – | – | – | – | 0.003 | 3.7 | > 60 | > 60 | Activity [15]: Non-Toxic; inhibition at 10 µM [16]: 38%; ED50 [12]: 0.21 mg/kg.day; ED90 [12]: 3.54 mg/kg.day; Activity [18]: Non-Toxic; Activity [19]: Non-Toxic; Activity [21]: Non-Toxic
13 | CCN(CC)CCCOc1ccc2c(=O)c3ccc(Cl)cc3[nH]c2c1 | 19700 | 1890 | 294 | – | – | 72 | 272 | 254 | 436 | 34 | > 60 | –
14 | CCN(CC)CCOc1ccc2c(=O)c3ccc(Br)cc3[nH]c2c1 | > 40000 | 968 | 37 | – | – | > 1600 | 25 | 34 | 100 | > 60 | > 60 | –
15 | CC(C)(C)NCCCCOc1ccc2c(=O)c3c(F)cc(F)cc3[nH]c2c1 | 101000 | > 2500 | 14 | – | – | 1350 | 75 | 265 | 362 | > 60 | > 60 | –
16 | O=C1C(O)=C([C@H]2CC[C@H](c3ccc(Cl)cc3)CC2)C(=O)c2ccccc21 [ATOVAQUONE] | – | – | – | 4.1 | inactive | – | – | – | – | – | – | IC50 [10]: 6.9 nM; IC50 [13]: 0.5 nM; IC50 [14]: 1.9 nM
17 | O=c1c2ccc(OCCCC(F)(F)F)cc2[nH]c2cc(F)cc(F)c12 | > 200000 | 40 | 0.5 | – | – | > 200000 | 0.027 | 0.033 | 48 | 59 | > 60 | –
18 | C=C[C@H]1CN2CC[C@H]1C[C@H]2[C@H](O)c1ccnc2ccc(OC)cc12 [QUININE] | – | – | – | 215 | inactive | – | – | 254 | – | – | – | IC50 [10]: 197 nM; IC50 [11]: 199 nM
19 | CCCN(CCC)CCOc1ccc2c(=O)c3c(Cl)cc(OC)cc3[nH]c2c1 | > 200000 | 81 | 6.2 | – | – | > 308000 | 0.65 | 4.2 | 2.9 | 10 | 7 | –
20 | O=c1c2ccc(OCCCCl)cc2[nH]c2ccc(Cl)c(Cl)c12 | > 100000 | 1040 | 3.1 | 551 | inactive | > 31200 | 3.2 | 17 to 22 | – | – | – | IC50 [11]: 324 nM; IC50 [13]: 11.1 nM; IC50 [14]: 605 nM
21 | O=c1c2ccc(OCCCl)cc2[nH]c2ccc(Cl)c(Cl)c12 | > 100000 | 1380 | 45 | – | – | > 40000 | 2.5 | 27 | 183 | > 60 | > 60 | –
22 | CC(C)(C)NCCOc1ccc2c(=O)c3c(Cl)c(Cl)ccc3[nH]c2c1 | 38400 | > 2500 | 295 | 3070 | inactive | 362 | 106 | 139 to 679 | – | – | – | –
23 | CCCN(CCC)CCOc1ccc2c(=O)c3cc(Cl)ccc3[nH]c2c1 | > 100000 | 317 | 9.2 | – | – | > 27800 | 3.6 | 15 | 12.5 | 16 | 12 | –
24 | CCCN(CCC)CCOc1ccc2c(=O)c3ccc(Cl)cc3[nH]c2c1 | 40600 | 1540 | 9.1 | – | – | 16300 | 2.5 | 11 | 14.8 | > 60 | > 60 | –
25 | CCCCCCOc1ccc2c(=O)c3c(F)cc(F)cc3[nH]c2c1 | > 100000 | 5.4 | 0.05 | – | – | > 100000 | 0.026 | 0.041 | 72 | – | – | Activity [15]: Non-Toxic; inhibition at 10 µM [16]: 20%; ED50 [12]: 1.09 mg/kg.day; ED90 [12]: 12.7 mg/kg.day; Activity [18]: Non-Toxic; Activity [19]: Non-Toxic; Activity [21]: Non-Toxic
